Assay results taken from US20040009210A1, “Wound management products incorporating cationic compounds” (Kimberly-Clark Worldwide, Inc., priority 2002, published 2004).

Test: Effective charge density of the cationic compound (measured)
Format: physicochemical

SMILES: CCCCCCCC/C=C\CCCCCCCC(=O)NCC[N+]1=C(CCCCCCC/C=C\CCCCCCCC)N(C)CC1.COS(=O)(=O)[O-] [cationic softener, 1-methyl-2-Noroleyl-3-oleyl amidoethyl imidazolinium methosulfate]
- effective charge density (measured): about 1300 microequivalents/gram
